Measured values published in ChEMBL document CHEMBL1201862, “PubChem BioAssay data set” (2004).
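These data come from cells grown in 96-well plates and exposed to compound for 48 hours at five concentrations. GI50 = concentration required for 50% inhibition of growth.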 Calls of active or inactive are those of the source. Rule as the data show it: active = GI50 up to about 1.1 µM and inactive = higher.

How the values were obtained:
Test in all cases: growth of human tumour cells (NCI), 48 h
786-0 = test system: 786-0
A498 = test system: A498
A549 = test system: A549
ACHN = test system: ACHN
BT-549 = test system: BT-549
CAKI-1 = test system: CAKI-1
CCRF-CEM = test system: CCRF-CEM
COLO 205 = test system: COLO 205
DU-145 = test system: DU-145
EKVX = test system: EKVX
HCC 2998 = test system: HCC 2998
HCT-116 = test system: HCT-116
HCT-15 = test system: HCT-15
HL-60 = test system: HL-60
HOP-62 = test system: HOP-62
HOP-92 = test system: HOP-92
HT-29 = test system: HT-29
Hs-578T = test system: Hs-578T
IGROV-1 = test system: IGROV-1
K562 = test system: K562
KM12 = test system: KM12
LOX IMVI = test system: LOX IMVI
M14 = test system: M14
MCF7 = test system: MCF7
MDA-MB-231 = test system: MDA-MB-231
MDA-MB-435 = test system: MDA-MB-435
MDA-N = test system: MDA-N
MOLT-4 = test system: MOLT-4
Malme-3M = test system: Malme-3M
NCI-H226 = test system: NCI-H226
NCI-H23 = test system: NCI-H23
NCI-H460 = test system: NCI-H460
NCI-H522 = test system: NCI-H522
NCI/ADR-RES = test system: NCI/ADR-RES
OVCAR-3 = test system: OVCAR-3
OVCAR-4 = test system: OVCAR-4
OVCAR-5 = test system: OVCAR-5
OVCAR-8 = test system: OVCAR-8
PC-3 = test system: PC-3
RPMI-8226 = test system: RPMI-8226
RXF 393 = test system: RXF 393
SF-268 = test system: SF-268
SF-295 = test system: SF-295
SF-539 = test system: SF-539
SK-MEL-28 = test system: SK-MEL-28
SK-MEL-2 = test system: SK-MEL-2
SK-MEL-5 = test system: SK-MEL-5
SK-OV-3 = test system: SK-OV-3
SN12C = test system: SN12C
SNB-19 = test system: SNB-19
SNB-75 = test system: SNB-75
SW-620 = test system: SW-620
T47D = test system: T47D
TK-10 = test system: TK-10
U-251 = test system: U-251
UACC-257 = test system: UACC-257
UACC-62 = test system: UACC-62
UO-31 = test system: UO-31
SR = test system: SR

Measured: GI50

CCN1CCc2sc3nc(S)n(C)c(=O)c3c2C1
> 100 µM: HCT-15
inactive: 786-0 > 100 µM | A498 > 100 µM | A549 > 100 µM | ACHN > 100 µM | BT-549 > 100 µM | CAKI-1 > 100 µM | COLO 205 > 100 µM | DU-145 > 100 µM | EKVX > 100 µM | HCC 2998 > 100 µM | HCT-116 > 100 µM | HOP-62 > 100 µM | HOP-92 > 100 µM | HT-29 > 100 µM | Hs-578T > 100 µM | IGROV-1 > 100 µM | K562 > 100 µM | KM12 > 100 µM | LOX IMVI > 100 µM | M14 > 100 µM | MCF7 > 100 µM | MDA-MB-231 > 100 µM | MDA-MB-435 > 100 µM | MDA-N > 100 µM | MOLT-4 > 100 µM | Malme-3M > 100 µM | NCI-H226 > 100 µM | NCI-H23 > 100 µM | NCI-H460 > 100 µM | NCI-H522 > 100 µM | NCI/ADR-RES > 100 µM | OVCAR-3 > 100 µM | OVCAR-4 > 100 µM | OVCAR-5 > 100 µM | OVCAR-8 > 100 µM | PC-3 > 100 µM | RPMI-8226 > 100 µM | RXF 393 > 100 µM | SF-268 > 100 µM | SF-295 > 100 µM | SF-539 > 100 µM | SK-MEL-28 > 100 µM | SK-MEL-2 > 100 µM | SK-MEL-5 > 100 µM | SK-OV-3 > 100 µM | SN12C > 100 µM | SNB-19 > 100 µM | SNB-75 > 100 µM | SW-620 > 100 µM | T47D > 100 µM | TK-10 > 100 µM | U-251 > 100 µM | UACC-257 > 100 µM | UACC-62 > 100 µM | UO-31 > 100 µM
active: CCRF-CEM < 0.01 µM | HL-60 < 0.01 µM

O=C(O)Cn1ccc(=O)c2cc([N+](=O)[O-])ccc21
inactive: 786-0 > 100 µM | A498 > 100 µM | A549 > 100 µM | ACHN > 100 µM | BT-549 > 100 µM | CAKI-1 > 100 µM | CCRF-CEM > 100 µM | COLO 205 48.8 µM | DU-145 38.1 µM | HCC 2998 > 100 µM | HCT-116 > 100 µM | HL-60 > 100 µM | HOP-62 > 100 µM | HT-29 > 100 µM | Hs-578T > 100 µM | IGROV-1 > 100 µM | K562 > 100 µM | KM12 > 100 µM | M14 > 100 µM | MCF7 > 100 µM | MDA-MB-231 19.4 µM | MDA-MB-435 > 100 µM | MDA-N > 100 µM | MOLT-4 > 100 µM | Malme-3M > 100 µM | NCI-H226 > 100 µM | NCI-H23 > 100 µM | NCI-H460 > 100 µM | NCI-H522 > 100 µM | NCI/ADR-RES > 100 µM | OVCAR-3 > 100 µM | OVCAR-5 > 100 µM | OVCAR-8 > 100 µM | PC-3 > 100 µM | SF-268 > 100 µM | SF-295 > 100 µM | SF-539 > 100 µM | SK-MEL-28 > 100 µM | SK-MEL-2 > 100 µM | SK-MEL-5 > 100 µM | SK-OV-3 > 100 µM | SN12C > 100 µM | SNB-19 > 100 µM | SNB-75 > 100 µM | SR > 100 µM | SW-620 > 100 µM | T47D 33.1 µM | TK-10 > 100 µM | U-251 > 100 µM | UACC-257 > 100 µM | UACC-62 > 100 µM | UO-31 > 100 µM
> 100 µM: HCT-15

N#Cc1sc2c(c1OC(=O)c1ccco1)c(=O)n(-c1ccccc1)c(=S)n2-c1ccccc1
20 µM: HCT-15
inactive: 786-0 31.1 µM | A549 35.9 µM | BT-549 37.6 µM | CAKI-1 39.7 µM | CCRF-CEM > 10 µM | COLO 205 22.8 µM | DU-145 48.5 µM | EKVX 52.6 µM | HCC 2998 55.7 µM | HCT-116 19.2 µM | HL-60 67.5 µM | HOP-62 25.9 µM | HT-29 32.9 µM | Hs-578T 57.4 µM | IGROV-1 > 10 µM | K562 15 µM | KM12 30.3 µM | LOX IMVI 16.2 µM | M14 25.5 µM | MCF7 31.2 µM | MDA-MB-231 26.5 µM | MDA-MB-435 27.7 µM | MDA-N 20.8 µM | MOLT-4 13.8 µM | Malme-3M 22.2 µM | NCI-H226 34.3 µM | NCI-H23 34.8 µM | NCI-H460 32 µM | NCI-H522 27.4 µM | NCI/ADR-RES 26.6 µM | OVCAR-3 24.8 µM | OVCAR-4 23.6 µM | OVCAR-8 29.9 µM | PC-3 18.5 µM | RPMI-8226 22.4 µM | RXF 393 23.3 µM | SF-268 32.4 µM | SF-295 26.7 µM | SF-539 26.1 µM | SK-MEL-28 35 µM | SK-MEL-2 28.8 µM | SK-MEL-5 17.6 µM | SK-OV-3 27.7 µM | SN12C 27.8 µM | SNB-19 36.4 µM | SNB-75 18.8 µM | SR > 10 µM | SW-620 17.7 µM | T47D 21.1 µM | TK-10 49.8 µM | U-251 25.3 µM | UACC-257 62.2 µM | UACC-62 15.3 µM | UO-31 16 µM

CCCC(=O)Nc1ccc2c(c1)CN1C(=O)c3ccccc3C1=N2
> 100 µM: HCT-15
inactive: 786-0 > 100 µM | A549 > 100 µM | ACHN > 100 µM | BT-549 > 100 µM | CAKI-1 > 100 µM | COLO 205 > 100 µM | DU-145 > 100 µM | HCC 2998 > 100 µM | HCT-116 > 100 µM | HL-60 > 100 µM | HOP-62 > 100 µM | HOP-92 > 100 µM | HT-29 > 100 µM | Hs-578T > 100 µM | IGROV-1 > 100 µM | KM12 > 100 µM | LOX IMVI > 100 µM | M14 > 100 µM | MCF7 > 100 µM | MDA-MB-231 > 100 µM | MDA-MB-435 > 100 µM | MDA-N > 100 µM | MOLT-4 > 100 µM | Malme-3M > 100 µM | NCI-H226 > 100 µM | NCI-H23 > 100 µM | NCI-H460 > 100 µM | NCI-H522 > 100 µM | NCI/ADR-RES > 100 µM | OVCAR-3 > 100 µM | OVCAR-4 > 100 µM | OVCAR-5 > 100 µM | OVCAR-8 > 100 µM | PC-3 > 100 µM | RPMI-8226 > 100 µM | SF-268 > 100 µM | SF-295 69.5 µM | SF-539 > 100 µM | SK-MEL-28 > 100 µM | SK-MEL-2 > 100 µM | SK-MEL-5 > 100 µM | SK-OV-3 > 100 µM | SN12C > 100 µM | SNB-19 > 100 µM | SNB-75 49.5 µM | SR > 100 µM | SW-620 > 100 µM | T47D > 100 µM | TK-10 > 100 µM | U-251 > 100 µM | UACC-257 > 100 µM | UACC-62 > 100 µM | UO-31 > 100 µM

CCCCN1C(=O)CC2[C@@H]3CCc4cc(OC)ccc4C3CC[C@]2(C)C1=O (some centres not stated)
inactive: 786-0 > 10 µM | A498 > 10 µM | A549 > 10 µM | ACHN > 10 µM | BT-549 > 10 µM | CAKI-1 > 10 µM | CCRF-CEM > 10 µM | COLO 205 > 10 µM | DU-145 > 10 µM | EKVX > 10 µM | HCC 2998 > 10 µM | HCT-116 > 10 µM | HL-60 5.04 µM | HOP-62 > 10 µM | HT-29 > 10 µM | Hs-578T > 10 µM | IGROV-1 > 10 µM | K562 7.93 µM | KM12 > 10 µM | LOX IMVI > 10 µM | M14 > 10 µM | MCF7 > 10 µM | MDA-MB-231 > 10 µM | MDA-MB-435 > 10 µM | MDA-N > 10 µM | MOLT-4 > 10 µM | Malme-3M > 10 µM | NCI-H226 > 10 µM | NCI-H23 > 10 µM | NCI-H460 > 10 µM | NCI/ADR-RES > 10 µM | OVCAR-3 > 10 µM | OVCAR-4 > 10 µM | OVCAR-5 > 10 µM | OVCAR-8 > 10 µM | PC-3 > 10 µM | RPMI-8226 > 10 µM | RXF 393 > 10 µM | SF-268 > 10 µM | SF-295 > 10 µM | SF-539 > 10 µM | SK-MEL-28 > 10 µM | SK-MEL-2 > 10 µM | SK-MEL-5 > 10 µM | SK-OV-3 > 10 µM | SN12C > 10 µM | SNB-19 > 10 µM | SNB-75 3.1 µM | SR 6.85 µM | SW-620 > 10 µM | T47D > 10 µM | TK-10 > 10 µM | U-251 > 10 µM | UACC-257 > 10 µM | UACC-62 > 10 µM | UO-31 > 10 µM
> 10 µM: HCT-15
